≈ marks a conversion by molar mass, not a printed value.
What was measured:
[1] = Aqueous solubility of the compound in pH 6.8 JP2 fluid measured after 20 hrs by HPLC analysis; assay type: physicochemical
[2] = Inhibition of EML4-fused ALK variant 1 (unknown origin) expressed in mouse BAF3 cells using peptide substrate measured after 1 hr by HTRF assay; assay type: cell-based, Homo sapiens
BaF3 = experiment: Antiproliferative activity against mouse BAF3 cells expressing EML4-fused ALK variant 1 assessed as reduction in cell viability measured after 2 days by alamar blue assay; assay type: functional, cell-based; details: BaF3, 48 h
[3] = Toxicity in Balb/c nude mouse xenografted with mouse 3T3 cells expressing EML4-fused ALK variant 1 assessed as effect on body weight at 10 mg/kg, po administered once daily for 5 days; assay type: organism-based; details: in vivo, 120 h
NIH3T3 [4] = experiment: Antitumor activity against mouse 3T3 cells expressing EML4-fused ALK variant 1 xenografted in Balb/c nude mouse assessed as tumor growth inhibition at 10 mg/kg, po administered once daily for 5 days measured post last dose relative to control; assay type: functional; parameters: Activity: scale not given: the % may be the effect or the level left
[5] = Permeability of the compound at pH 6.5 measured after 2 hrs by PAMPA; assay type: ADME; details: read-out: permeability
NIH3T3 [6] = experiment: Antitumor activity against mouse 3T3 cells expressing EML4-fused ALK variant 1 xenografted in Balb/c nude mouse assessed as tumor regression at 10 mg/kg, po administered once daily for 5 days measured post last dose relative to control; assay type: functional

| Structure (SMILES) | IC50 [2] [nM] | IC50 (BaF3) [nM] | also measured |
| --- | --- | --- | --- |
| CCc1nc(C(N)=O)c(Nc2cccc(S(C)(=O)=O)c2)nc1N[C@H]1CC[C@H](O)CC1 | 17 | 68 | solubility at 20 h [1]: 1.1 µM (≈ 0.477 µg/mL) |
| CCc1nc(C(N)=O)c(Nc2ccc(N3CCC(N4CCN(C)CC4)CC3)cc2OC)nc1N[C@H]1CC[C@H](O)CC1 | 8.9 | 85 | solubility at 20 h [1]: ≥ 100 µM |
| CCc1nc(C(N)=O)c(Nc2ccc(N3CCC(N4CCN(C)CC4)CC3)c(OC)c2)nc1N[C@H]1CC[C@H](O)CC1 | 0.37 | 9.5 | Activity [3]: Toxic; solubility at 20 h [1]: ≥ 100 µM; Activity (NIH3T3 [4]): 34%; Papp at 2 h [5]: 1.1 ×10⁻⁶ cm/s |
| CS(=O)(=O)c1cccc(Nc2nc(N[C@H]3CC[C@H](O)CC3)c(Br)nc2C(N)=O)c1 | 82 |  |  |
| CCc1nc(C(N)=O)c(Nc2ccc(N3CCC(N4CCN(C)CC4)CC3)c(OC)c2)nc1N[C@H]1CC[C@H](OC)CC1 | 1 | 9.7 | Activity [3]: Toxic; Activity (NIH3T3 [6]): 62%; Papp at 2 h [5]: 21 ×10⁻⁶ cm/s |
| CCc1nc(C(N)=O)c(Nc2ccc(N3CCC(N4CCN(C)CC4)CC3)c(OC)c2)nc1N(C)CC | 6.6 | 31 |  |
| CCc1nc(C(N)=O)c(Nc2ccc(N3CCC(N4CCN(C)CC4)CC3)c(OC)c2)nc1NC(C)C | 0.8 | 12 |  |
| CCNc1nc(Nc2ccc(N3CCC(N4CCN(C)CC4)CC3)c(OC)c2)c(C(N)=O)nc1CC | 2.5 | 16 |  |
| CS(=O)(=O)c1cccc(Nc2nc(N[C@H]3CC[C@H](O)CC3)c(C3CC3)nc2C(N)=O)c1 | 37 |  |  |
| CCCc1nc(C(N)=O)c(Nc2cccc(S(C)(=O)=O)c2)nc1N[C@H]1CC[C@H](O)CC1 | 23 |  |  |
| Cc1nc(C(N)=O)c(Nc2cccc(S(C)(=O)=O)c2)nc1N[C@H]1CC[C@H](O)CC1 | 51 |  |  |
| CS(=O)(=O)c1cccc(Nc2nc(N[C@H]3CC[C@H](O)CC3)cnc2C(N)=O)c1 | 270 |  |  |
| CS(=O)(=O)c1cccc(Nc2nc(N[C@H]3CC[C@H](O)CC3)c(Cl)nc2C(N)=O)c1 | 82 |  |  |
| CCc1nc(C(N)=O)c(Nc2ccc(N3CCC(N4CCN(C)CC4)CC3)c(OC)c2)nc1N[C@@H]1CCCC[C@H]1O (racemic) | 13 | 48 |  |
| COc1cc(N2CCC(N3CCN(C)CC3)CC2)ccc1Nc1ncnc(Nc2ccccc2S(=O)(=O)C(C)C)n1 [ASP-3026] | 17 |  | Activity [3]: Non-Toxic; inhibition in vivo at 10 mg/kg (NIH3T3 [4]; Mus musculus, NIH3T3, po, 120 h, read-out: TGI): 81% |
